Data set [1] relates to Mouse fibroblast cells (L-929). The data set can be described thus: Test for cell protection (Alamar Blue). In kind it is cell-based. The note with it: 1% in D-MEM before one-hour drying. The protocol:
To examine the influence of the syrup containing saccharide derivatives of α,α-trehalose, prepared in Example 6, on cell protection, the following experiment was carried out. […] As controls, control media containing D-MEM supplemented with 10% fetal calf serum and optionally containing 1% glycerin were prepared. The control mediums were added in the medium-removed wells of the remaining four plates, respectively. The cells were cultured for one day, dried for one hour in such a manner of keeping in opened plate under the sterile condition after the medium was removed from the wells by aspiration. Then, the cells were cultured in D-MEM supplemented with 10% fetal calf serum for three days while changing the medium once a day. The resulting plates were subjected to the measurement of cell amount of each well using “Alamar Blue” commercialized by Wako Pure Chemical Industries, Ltd., Osaka, Japan, just after the drying, and four hours, one day, two days or three days after the drying. […] In detail, the medium was added to each well in an amount of 4 ml. One plate was used for each measurement for the amount of cells treated with the test medium or the two control mediums. […] As evidence from the result in Table 10, the test medium or the control media increased the rate of cell proliferation of fibroblast cells. The control medium containing 1% of glycerin increased cell amount almost equal to the control medium containing only D-MEM. […] Influence caused by UV-irradiation was examined in the same manner as above instead of exposure to a drying condition (data not shown).
On the technique in general: The colour change of resazurin is a common sign of viable cells or microbes.

A short description of data set [2]: Test for absorbing or releasing moisture (comparison with usual moisturizing agents). In kind it is physicochemical. The note with it: 75% sample, after RH 60% for 216 hours. On the procedure: The syrup containing saccharide derivatives of α,α-trehalose was confirmed to have a satisfactory property of absorbing and releasing moisture. To compare other saccharide used as a usual moisturizing agent for cosmetics, the following experiment was carried out. Test samples, containing 75%, on a dry solid basis, of either of the syrup prepared in Example 6, concentrated glycerin, sorbitol or maltitol, were prepared. About 1 g of each solution was placed in two containers. The containers were preciously weighed and kept at RH 60% for 216 hours. One of containers was kept at RH 80% and the other container was kept at PH 33%. After 24 hours or 168 hours, they were weighed.

Another data set relates to TNF-α. The data set can be described thus: Production of TNF-α by macrophage cell line RAW264.7 stimulated with IFN-γ and LPS. It is filed as cell-based. The following applies: data not shown. The text has this:
Glycerin enhanced the production of TNF-α in a concentration-dependent manner and inhibited the production of ICAM-1 molecule.

The nature of data set [3]: Browning of L-ascorbic acid kept at 50° C. for 14 days (Experiment 3). In kind it is physicochemical. The protocol: An aqueous solution further containing 10 parts by weight of glycerin (concentrated glycerin in cosmetic grade, commercialized by Kao Co., Ltd., Tokyo, Japan) instead of saccharide derivatives of α,α-trehalose was prepared. Three resulting solutions were kept at 50° C. under the shaded condition for 14 days. To examine browning, values of absorbance 420 nm of the test samples were measured by usual method and compared with that of the starting test samples. To examine the degree of coloring, relative values of test samples were calculated by comparing the value of differential absorbance of the solution containing only L-ascorbic acid, defined as 100%. Degree of coloring=(Difference of absorbance of test sample containing saccharide derivatives of α,α-trehalose or glycerin)/(Difference of absorbance of control sample containing only L-ascorbic acid)×100

For data set [4], the system named is crude water-insoluble glucan producing enzyme. Nature of the data set: Test for the production of water-insoluble glucan. In kind it is biochemical, Streptococcus mutans OMZ-176. On the procedure: To examine the effect of the syrup containing saccharide derivatives of α,α-trehalose, prepared in Example 6, on the production of water-insoluble glucan, the following experiment was carried out. According to usual method, Streptococcus mutans OMZ-176 was cultured to prepare a crude water-insoluble glucan producing enzyme solution (25 mg protein/ml). Test saccharide solutions were prepared by dissolving the syrup prepared in Example 1, the syrup prepared in Example 6, or α-maltosyl α,α-trehalose used in Experiment 1 in purified water to give a final concentration 2% on a dry solid basis. A half milliliter of one of the test saccharide solution was admixed with 0.25 ml of the crude water-insoluble glucan producing enzyme solution, 0.75 ml of 0.1 M phosphate buffer, and 0.5 ml of 2% sucrose. The resulting reaction mixture was placed in a new test tube (sized with 10 mm in diameter and 130 mm in height) slanted at an elevation angle of 30 degrees, and kept at 37° C. for 16 hours. The supernatant was gently collected. The remaining precipitate was washed with deionized water by centrifuging twice to collect a precipitate as adherent glucan. The washing solution and the above supernatant was mixed together and centrifuged at 5,000 rpm for 10 minutes to collect precipitate. The resulting precipitate was washed with deionized water and centrifuged to collect a non-adherent glucan. The adherent and non-adherent glucan were weighed. The total weight thereof was calculated as water-insoluble glucan. As a control, distilled water was used instead of the test saccharide solution. The water-insoluble glucan as control were weighed in the same manner. Inhibitory rate (%) of the production of water-insoluble glucan was calculated in such a manner of dividing the value of each test saccharide solution by that of the control, multiplying the resulting value by 100, and subtracting the resulting value from 100.

Data set [5] has as its system Streptococcus mutans OMZ-176. Nature of the data set: Test for acidic fermentation. In kind it is cell-based. On the procedure:
(§1) The resulting precipitate was washed with Stephan buffer (pH7.0), and centrifuged to collect a bacteria precipitate. Equal volume of Stephan buffer was added to the bacteria precipitate, followed by suspending the precipitate in the buffer to give a final concentration of 50% (v/v) in order to prepare two bacteria suspensions for testing. A half milliliter of the bacteria suspension was admixed with 0.5 ml of the above test saccharide solution and incubated at 37° C. for 90 minutes, while measuring the pH at 5, 15, 30, 60, and 90 minutes after the initiation of the culture. The Stephan's buffer was prepared by admixing 1 ml of “solution A” and “solution B” with distilled water to give a final volume 100 ml, and adjusting to pH7.0 (“solution A”: dissolving 71 g of Na2HPO4, 7.92 g of KOH and 68.1 g of KH2PO4 in distilled water to give a final volume 1,000 ml; and “solution B”: dissolving 45.4 g of KH2PO4, 3.2 g of MgSO4 2H2O and 100 ml of 1.2N HCl in distilled water to give a final volume 1,000 ml).

Data set [6] has as its system Streptococcus sobrinus 6715. Nature of the data set: Test for acidic fermentation. In kind it is cell-based. The protocol: as §1
Data set [7] can be described thus: Hygroscopicity and solubility in water of the products. In kind it is physicochemical.
Where [8] appears, read: 2% test saccharide solution with sucrose, 37° C., 16 hours.
Where [9] appears, read: 0.7% test saccharide solution, 37° C., reaction time 0 minute.
[10] abbreviates: reaction time 5 minutes, listed as sucrose.

`OCC(O)CO` [Glycerin, glycerin]: the “Rate of cell proliferation (%)” value in data set [1] (One day after dried) was 165%; in data set [1] (One hour (defined as 100%)) it was 100%; in data set [1] (Three days after dried), 243%; in data set [1] (Two days after dried) it was 235%. The “Relative weight change rate (%)” value is reported as 0.0% in data set [2] (RH 33%, 0 hour); −13.8% in data set [2] (RH 33%, 24 hours); −18.8% in data set [2] (RH 33%, 168 hours); 0.0% in data set [2] (RH 80%, 0 hour); 8.2% in data set [2] (RH 80%, 24 hours). For the same compound, the “production of TNF-α” value in the data set with TNF-α was “inhibited the production of TNF-α in a concentration-dependent manner”.

On to `OC[C@@H](O)[C@@H](O[C@H]1O[C@H](CO)[C@@H](O)[C@H](O)[C@H]1O)[C@H](O)[C@@H](O)CO` [Maltitol, maltitol], for which the “Relative weight change rate (%)” value in data set [2] (RH 33%, 0 hour) is reported as 0.0%; in data set [2] (RH 33%, 24 hours), −1.4%; in data set [2] (RH 33%, 168 hours) it was −4.2%; in data set [2] (RH 80%, 0 hour), 0.0%; in data set [2] (RH 80%, 24 hours) it was 3.5%; in data set [2] (RH 80%, 168 hours) it was 5.3%.

`O=C1O[C@H]([C@@H](O)CO)C(O)=C1O` [L-Ascorbic acid, L-ascorbic acid]: in data set [3] (50° C., shaded, 14 days), the “Absorbance of test sample kept after 14 days (420 nm)” value was determined as 5.000. Besides, the “Difference of absorbance (420 nm)” value in data set [3] (14 days minus starting) came out at 4.999. In addition, the “Absorbance of starting test sample (420 nm)” value in data set [3] (pH 6.5 aqueous solution) was 0.001. Also, the “Degree of coloring (%)” value in data set [3] (relative to solution containing only L-ascorbic acid as 100%) worked out at 100%.

Take `OC[C@H]1O[C@H](O[C@H]2O[C@H](CO)[C@@H](O[C@H]3O[C@H](CO)[C@@H](O[C@H]4O[C@H](CO)[C@@H](O)[C@H](O)[C@H]4O)[C@H](O)[C@H]3O)[C@H](O)[C@H]2O)[C@H](O)[C@@H](O)[C@@H]1O` [Example 5, α-maltosyl α,α-trehalose]: the “Production of water-insoluble glucan, Adhesive glucan” value in data set [4] (setting [8]) is 1120 μg/10 mg sucrose. Moreover, the “Production of water-insoluble glucan, Non-adhesive glucan” value in data set [4] (setting [8]) stood at 1009 μg/10 mg sucrose. Further, the “Production of water-insoluble glucan, Total glucan” value in data set [4] (setting [8]) was determined as 2129 μg/10 mg sucrose. Moreover, the “Inhibition rate of production, Adhesive glucan” value in data set [4] (versus distilled water) was “(50) %”. The “Inhibition rate of production, Non-adhesive glucan” value in data set [4] (versus distilled water) was “(13) %”. Moreover, in data set [4] (versus distilled water), the “Inhibition rate of production, Total glucan” value is reported as “(37) %”. The pH in data set [5] (setting [9]) worked out at 6.72; in data set [5] (reaction time 5 minutes) it was 6.70; in data set [5] (reaction time 15 minutes), 6.64; in data set [5] (reaction time 30 minutes) it was 6.58; in data set [5] (reaction time 60 minutes), 6.51; in data set [5] (reaction time 90 minutes) it was 6.43. Besides, the pH in data set [6] (setting [9]) was 6.72; in data set [6] (reaction time 5 minutes), 6.70; in data set [6] (reaction time 15 minutes) it was 6.64; in data set [6] (reaction time 30 minutes) it was 6.58; in data set [6] (reaction time 60 minutes), 6.51; in data set [6] (reaction time 90 minutes), 6.43. Also, in data set [7], the hygroscopicity entry was “low”. Besides, the solubility in water entry in data set [7] is recorded as “satisfactory”.

As to `OC[C@@H](O)[C@@H](O)[C@H](O)[C@@H](O)CO` [Sorbitol, sorbitol], the “Relative weight change rate (%)” value was 0.0% in data set [2] (RH 33%, 0 hour); −2.4% in data set [2] (RH 33%, 24 hours); −5.0% in data set [2] (RH 33%, 168 hours); 0.0% in data set [2] (RH 80%, 0 hour); 5.4% in data set [2] (RH 80%, 24 hours); 10.7% in data set [2] (RH 80%, 168 hours).

`OC[C@H]1O[C@@](CO)(O[C@H]2O[C@H](CO)[C@@H](O)[C@H](O)[C@H]2O)[C@@H](O)[C@@H]1O` [Sucrose, sucrose]: the pH in data set [5] (setting [9]) was 6.60; in data set [5] (reaction time 5 minutes), 4.05; in data set [5] (setting [10]) it was “about 4.0”; in data set [5] (reaction time 15 minutes), 3.97; in data set [5] (reaction time 30 minutes), 3.99; in data set [5] (reaction time 60 minutes), 3.99. In addition, the pH is recorded as 4.01 in data set [5] (reaction time 90 minutes); 6.74 in data set [6] (setting [9]); 4.18 in data set [6] (reaction time 5 minutes); “about 4.0” in data set [6] (setting [10]); 3.87 in data set [6] (reaction time 15 minutes); 3.81 in data set [6] (reaction time 30 minutes). Further, the pH in data set [6] (reaction time 60 minutes) came out at 3.82; in data set [6] (reaction time 90 minutes) it was 3.91.

Source of the values: patent publication US7854922B2, “Skin preparation for external use characterized by containing sugar derivative of α, α-trehalose” (Kabushiki Kaisha Hayashibara Seibutsu Kagaku Kenkyujo, priority 2003, dated 2010).
